Reference: patent publication US20250235455A1, “AQUEOUS TICAGRELOR SOLUTIONS, METHOD OF MANUFACTURING AND USES” (HYLORIS DEVELOPMENTS SA, priority 2022, published 2025)
≈ marks a conversion by molar mass, not a printed value. Where two headings read alike, the source gives them in different places.

Key:
[1] = Maximum solubility of ticagrelor in HPβCD solution without heat; type: physicochemical; conditions: aqueous with cosolvent or surfactant or cyclodextrin, read-out: Ticagrelor mg/ml (maximum solubility)
Source text: In a further example, the maximum solubility of ticagrelor in an HPβCD solution, without the use of heat, was investigated.

[2] = Storage stability of ticagrelor 6 mg/ml in HPβCD 40% w/w, phosphate buffer pH 7.5, at 40° C. and 75% RH; type: physicochemical
Source text: A Gradient HPLC method was used to analyze impurities in formulations using a YMC-Pack Pro C18 column (100×4.6 mm, S-3 μm 12 nm). Good separation was obtained for all the impurities. • Amine impurity: (1S,2S,3R,5S)-3-(7-amino-5-(propylsulfanyl)-3H-[1,2,3]triazolo[4,5-d]pyrimidin-3-yl)-5-(2-hydroxyethoxy)cyclopentane-1,2-diol. This is a process related degradant impurity. • Regiomer impurity: (1S, 2S, 3R, 5S)-3-((3-((1R,2S)-2-(3,4-Difluorophenyl)cyclopropyl)-5-(propylsulfanyl)-3H-[1,2,3]triazolo[4,5-d]pyrimidin-7-yl)amino)-5-(2-hydroxyethoxy)cyclopentane-1,2-diol. This is a process related degradant impurity. • Acetal impurity: 2-[[(3aR,4S,6S,6aS)-6-[7-[1R,2S)-2-(3,4-difluorophenyl)-cyclopropyl]amino]-5-(propylsulfanyl)-3H-[1,2,3]triazolo-[4,5-d]pyrimidin-3-yl]-2,2-dimethyltetrahydro-2H-3aHcyclopenta[d][1,3]dioxol-4-yl]oxy]ethan-1-ol.
First HPβCD was dissolved in a phosphate buffer solution of pH 7.5 prepared separately in water. […] The solution was filtered through a 0.22 micrometer filter and filled in USP Type I amber colored glass vials. The vials were stoppered and stored. All precautions were taken during manufacturing, such as N2 purging and avoiding direct exposure to light.

[3] = pH 7.5, T = 4 weeks, 40° C./75% RH
[4] = pH 7.5, T = 8 weeks, 40° C./75% RH
[5] = pH 7.5, T = 12 weeks, 40° C./75% RH
[6] = pH 7.5, T = 24 Weeks, 40° C./75% RH

SMILES: CCCSc1nc(N[C@@H]2C[C@H]2c2ccc(F)c(F)c2)c2nnn([C@@H]3C[C@H](OCCO)[C@@H](O)[C@H]3O)c2n1 [Ticagrelor, (1S,2S,3R,5S)-3-{7-[(1R,2S)-2-(3,4-difluorophenyl)cyclopropylamino]5-(propylthio)-3H-(1,2,3)triazolo (4,5-D)pyrimidin-3-yl}-5-(2 hydroxyethoxy)cyclopentane-1,2-diol]
- solubility ([1]; HPβCD solution 17% w/w, HPβCD 17% w/W): 4 mg/mL (≈ 7.65 mM)
- solubility ([1]; HPβCD solution 22.5% w/w, HPβCD 22.5% w/W): 5 mg/mL (≈ 9.57 mM)
- solubility ([1]; HPβCD solution 30% w/w, HPβCD 30% w/W): 8 mg/mL (≈ 15.3 mM)
- solubility ([1]; HPβCD solution 33% w/w, HPβCD 33% w/W): 9 mg/mL (≈ 17.2 mM)
- solubility ([1]; HPβCD solution 40% w/w, HPβCD 40% w/W): 13 mg/mL (≈ 24.9 mM)
- Storage stability ([2]; 40° C. and 75% Relative Humidity): good storage stability
- Acetal impurity ([2]; pH 7.5, T = 0): 0.05%
- Amine impurity ([2]; pH 7.5, T = 0): 0.04%
- Assay Ticagrelor ([2]; pH 7.5, T = 0): 104.27%
- Regiomer impurity ([2]; pH 7.5, T = 0): 0.00%
- Sum Impurities >0.05 ([2]; pH 7.5, T = 0): 0.11%
- Total Impurities ([2]; pH 7.5, T = 0): 0.31%
- Triol impurity ([2]; pH 7.5, T = 0): 0.04%
- Acetal impurity [2, 3]: 0.05%
- Amine impurity [2, 3]: 0.05%
- Assay Ticagrelor [2, 3]: 104.47%
- Regiomer impurity [2, 3]: 0.01%
- Sum Impurities >0.05 [2, 3]: 0.14%
- Total Impurities [2, 3]: 0.32%
- Triol impurity [2, 3]: 0.05%
- Acetal impurity [2, 4]: 0.05%
- Amine impurity [2, 4]: 0.05%
- Assay Ticagrelor [2, 4]: 102.59%
- Regiomer impurity [2, 4]: 0.04%
- Sum Impurities >0.05 [2, 4]: 0.15%
- Total Impurities [2, 4]: 0.29%
- Triol impurity [2, 4]: 0.05%
- Acetal impurity [2, 5]: 0.05%
- Amine impurity [2, 5]: 0.05%
- Assay Ticagrelor [2, 5]: 102.31%
- Regiomer impurity [2, 5]: 0.08%
- Sum Impurities >0.05 [2, 5]: 0.23%
- Total Impurities [2, 5]: 0.41%
- Triol impurity [2, 5]: 0.04%
- Acetal impurity [2, 6]: 0.05%
- Amine impurity [2, 6]: 0.07%
- Assay Ticagrelor [2, 6]: 104.39%
- Regiomer impurity [2, 6]: 0.16%
- Sum Impurities >0.05 [2, 6]: 0.33%
- Total Impurities [2, 6]: 0.35%
- Triol impurity [2, 6]: 0.05%
